Experimental data from PMC8300879 (Journal of medicinal chemistry, 2021).

Experiments:
[1] = tested on: ABC derived from IPF patients; experiment: 3D organoid; type: cell-based, human; settings: ABC from IPF patients (n = 3), 14 days
[2] = tested on: acetylation of histone H3 (primary substrate of HDAC1 and other nuclear HDACs) in NB4, U87 and U2OS cells; experiment: Western blot, acetylation of histone H3 in cancer cell lines; type: cell-based; settings: 5 μM for 30 h
[3] = tested on: tubulin acetylation (the client protein of HDAC6) in NB4, U87 and U2OS cells; experiment: Western blot, acetylation of α-tubulin in cancer cell lines; type: cell-based; settings: 5 μM for 30 h; for acetylation of tubulin: NB4 and U87 cells
[4] = tested on: TA98 and TA100 strains of Salmonella typhimurium; experiment: Ames test with and without S9 fraction; type: cell-based; settings: TA98 and TA100, with and without S9 fraction of rat liver, 1–75 μM
[5] = tested on: zebrafish larvae (Danio rerio); experiment: Toxicity screen and optokinetic visual behaviour assay in zebrafish larvae; type: in vivo
[6] = tested on: TGF-β1-stimulated human lung parenchyma; experiment: Human lung tissue explant model of TGF-β1-dependent fibrogenesis; type: cell-based; settings: 6h 4.1 μM, TGF-β1 10 ng/ml, 7 days

| SMILES | spheres formation [1] | histone H3 acetylation [2] | acetylation of tubulin [3] | mutagenic effect [4] | toxic effects observed ([5]; 100 μM, 3 days old larvae treated for 2 days) | well tolerated concentration ([5]; 3 days old larvae treated for 2 days, 1-100 μM) | visual behavior versus vehicle control (0.1% DMSO) ([5]; five days old larvae, 1 to 100 μM) | mRNA expression for HDAC6 ([6]; n = 3 donors) | mRNA expression for collagen type I ([6]; n = 6 donors) | mRNA expression for collagen type III ([6]; n = 6 donors) | mRNA expression for fibronectin ([6]; n = 6 donors) | mRNA expression for α-SMA ([6]; n = 6 donors) | acetylation of α-tubulin versus histone H3 ([3]; U2OS cell line) |
| --- | --- | --- | --- | --- | --- | --- | --- | --- | --- | --- | --- | --- | --- |
| CN1CCC2(CC1)c1ccccc1N(Cc1ccc(C(=O)NO)cc1)C2c1ccccc1 (racemic) [(±)-6a, (±)-N-Hydroxy-4-((1’-methyl-2-phenylspiro[indoline-3,4’-piperidin]-1-yl)methyl)benzamide] | complete inhibition | unchanged | marked acetylation of tubulin |  |  |  |  |  |  |  |  |  |  |
| CN1CCC2(CC1)c1ccccc1N(Cc1ccc(C(=O)NO)cc1)C2c1ccccc1F (racemic) [(±)-6d, (±)-4-((2-(2-Fluorophenyl)-1’-methylspiro[indoline-3,4’-piperidin]-1-yl)methyl)-N-hydroxybenzamide] | complete inhibition | also induced the acetylation of histone H3 | equally effective in inhibiting HDAC6 |  |  |  |  |  |  |  |  |  |  |
| CN1CCC2(CC1)c1ccccc1N(Cc1ccc(C(=O)NO)cc1)C2c1ccc(F)cc1 (racemic) [(±)-6e, (±)-4-((2-(4-Fluorophenyl)-1’-methylspiro[indoline-3,4’-piperidin]-1-yl)methyl)-N-hydroxybenzamide] |  | unchanged | marked acetylation of tubulin |  |  |  |  |  |  |  |  |  |  |
| CC1(C)c2ccccc2N(Cc2ccc(C(=O)NO)cc2)C1c1cccnc1 (racemic) [(±)-6h, (±)-4-((3,3-Dimethyl-2-(pyridin-3-yl)indolin-1-yl)methyl)-N-hydroxybenzamide] | complete inhibition | unchanged | marked acetylation of tubulin | no mutagenic effect | some larvae failed to inflate their swim bladder and presented mild cardiac edema | up to 50 μM | no significant changes | significantly inhibited | significantly inhibited | significantly inhibited | significantly inhibited | significantly inhibited |  |
| CC1(C)c2ccccc2N(Cc2ccc(C(=O)NO)cc2)C1c1ccncc1 (racemic) [(±)-6l] | complete inhibition | unchanged | marked acetylation of tubulin |  |  |  |  |  |  |  |  |  | preferentially promote acetylation of α-tubulin |
